In patent US6423335B1, “Modified milk powder composition” (priority 1999, dated 2002):

Columns and labels:
Format in all cases: in vivo, rats (the Donryu strain)
[1] = Low protein diet feeding in rats: body weight, weight of tissues, BUN, blood profile (Example 1); details: for efficiency of protein utilization of feed / feed efficiency: versus 3% protein diet group; for level of platelets: versus suppression in 3% protein diet group
From the text: (§1) Four-week-age male rats (the Donryu strain) were fed 20% protein diet for one week. Then, glutamine (Gln) and glutamic acid (Glu) each were mixed into 3% protein diet at the level of 5% (w/w) and offered to the rats for three weeks. Also, a 20% protein diet group and a 3% protein diet group were set as controls. Upon each rat, body weight, weight of tissues, blood urea nitrogen (BUN), the level of leukocytes, the level of erythrocytes, hematocrit, the level of platelets, and production of TNF-α by peritoneal macrophage as an index of immune response were determined.

[2] = tested on: peritoneal macrophage; experiment: Production of TNF-α by peritoneal macrophage as an index of immune response (Example 1); details: 5% (w/w) in 3% protein diet, three weeks; versus suppression in 3% protein diet group
From the text: as §1

[3] = Commercial modified milk powder feeding in rats: body weight, weight of tissues, BUN, blood profile (Example 2); details: two weeks
From the text: (§2) Then, using commercial modified milk powder (milk serum protein, soybean oil, lactose, and various vitamins and minerals were mixed; level of proteins was from 12 to 13% by weight) as a control, glutamine ([…] became 2, 5, 8, or 40%), and each diet was offered (free ingestion) for two weeks. Upon each rat, body weight, weight of tissues, blood urea nitrogen (BUN), the level of leukocytes, the level of erythrocytes, hematocrit, the level of platelets, and production of TNF-α by peritoneal macrophage as an index of immune response were measured.

[4] = tested on: peritoneal macrophage; experiment: Production of TNF-α by peritoneal macrophage as an index of immune response (Example 2); details: two weeks
From the text: as §2

[5] = 5% (w/w) in 3% protein diet, three weeks
[6] = male rats, 5% (w/w) in 3% protein diet, three weeks
[7] = 0.3% Gln in modified milk powder
[8] = 0.65% Gln in modified milk powder
[9] = 1.5% Gln group, modified milk powder

N[C@@H](CCC(=O)O)C(=O)O [Glu, glutamic acid]
efficiency of protein utilization of feed [1, 5]: this beneficial phenomenon was not observed
feed efficiency [1, 5]: this beneficial phenomenon was not observed
level of platelets [1, 5]: no improvement
Blood urea nitrogen [1, 6]: 18.8 ± 2.9 mg/dL
Body weight at the end of experiment [1, 6]: 180.5 ± 3.8
production of TNF-α by peritoneal macrophage [2]: no improvement

NC(=O)CC[C@H](N)C(=O)O [Gln, glutamine]
remarkable decrease of body weight on low protein diet ([1]; 5% (w/w) in 3% protein diet, three weeks, compared with 3% protein diet group): this phenomenon was observed
efficiency of protein utilization of feed [1, 5]: higher than those in the 3% protein diet group
feed efficiency [1, 5]: higher than those in the 3% protein diet group
level of platelets [1, 5]: improvement was observed
Body weight at the end of experiment [1, 6]: 200.2 ± 3.1
Blood urea nitrogen ([1]; rat, in vivo): 18.9 ± 2.1 mg/dL
production of TNF-α by peritoneal macrophage [2]: improvement was observed
Blood urea nitrogen [3, 7]: 20.5 mg/dL
Body weight at the end of experiment [3, 7]: 233.1
body weight and any of the other indexes versus control group (Gln 0%) [3, 7]: no difference
Blood urea nitrogen [3, 8]: 22.1 mg/dL
Body weight at the end of experiment [3, 8]: 238.2
body weight versus control group [3, 8]: a slight difference
Blood urea nitrogen ([3]; 1% Gln in modified milk powder): 23.4 mg/dL
Body weight at the end of experiment ([3]; 1% Gln in modified milk powder): 241.7
body weight as compared with the control group [3, 9]: there were observed differences
level of platelets as compared with the control group [3, 9]: there were observed differences
Blood urea nitrogen ([3]; 5% Gln in modified milk powder): 24.1 mg/dL
Body weight at the end of experiment ([3]; 5% Gln in modified milk powder): 245.8
production of TNF-α by peritoneal macrophage versus control group [4, 8]: higher than that at the control group
production of TNF-α by peritoneal macrophage as compared with the control group [4, 9]: there were observed differences
